Experimental data: ChEMBL document CHEMBL5260802, “Discovery of Novel Allosteric HCV NS5B Inhibitors. 2. Lactam-Containing Thiophene Carboxylates” (ACS Med Chem Lett, 2017)

What was measured:
[1] = Unbound AUC (0 to infinity) in Sprague-Dawley rat at 1 mg/kg,iv and measured after 72 hrs by LC/MS/MS analysis; format: ADME, organism-based; conditions: in vivo
[2] = Unbound AUC (0 to infinity) in Sprague-Dawley rat at 3 mg/kg,po and measured after 72 hrs by LC/MS/MS analysis; format: ADME, organism-based; conditions: in vivo
[3] = Clearance in Sprague-Dawley rat at 1 mg/kg,iv and measured after 72 hrs by LC/MS/MS analysis; format: ADME, organism-based; conditions: in vivo
[4] = Half life in Sprague-Dawley rat at 1 mg/kg,iv and measured after 72 hrs by LC/MS/MS analysis; format: ADME, organism-based; conditions: in vivo
[5] = Oral bioavailability in Sprague-Dawley rat at 3 mg/kg and measured after 72 hrs by LC/MS/MS analysis; format: ADME, organism-based; conditions: in vivo
Hepatitis C virus [6] = test: Antiviral activity against Hepatitis C virus subtype 1b infected in Huh-7 cells transfected with HCV subgenomic replicon for NS5B polymerase assessed as inhibition of viral replication measured upto 96 hrs by luciferase reporter gene assay; format: functional, organism-based, Hepacivirus hominis; conditions: for IC50: Huh-7, 96 h; for IC90: Huh-7, time <= 96 hrs
[7] = AUC (0 to infinity) in Sprague-Dawley rat at 3 mg/kg,po and measured after 72 hrs by LC/MS/MS analysis; format: ADME, organism-based; design: time 72 hrs, dose 3 mg/kg, route po; conditions: in vivo
[8] = AUC (0 to infinity) in Sprague-Dawley rat at 1 mg/kg,iv and measured after 72 hrs by LC/MS/MS analysis; format: ADME, organism-based; design: time 72 hrs, dose 1 mg/kg, route iv; conditions: in vivo; for AUC(0-inf): Sprague-Dawley
[9] = Cytotoxicity against human Huh-7 cells transfected with HCV subgenomic replicon for NS5B polymerase assessed as reduction in cell viability; format: toxicity, cell-based
[10] = Half life in Sprague-Dawley rat at 3 mg/kg,po and measured after 72 hrs by LC/MS/MS analysis; format: ADME, organism-based; conditions: in vivo
Hepatitis C virus [11] = test: Antiviral activity against Hepatitis C virus subtype 1b infected in Huh-7 cells transfected with HCV subgenomic replicon for NS5B polymerase assessed as inhibition of viral replication measured upto 96 hrs in presence of 40% of human serum by luciferase reporter gene assay; format: functional, organism-based, Hepacivirus hominis; conditions: Huh-7, 96 h
[12] = Protein binding in rat plasma at 1 uM incubated for 6 hrs by LC-MS/MS based rapid equilibrium dialysis method; format: ADME, cell-free; conditions: read-out: PPB (converted)
[13] = Unbound clearance in Sprague-Dawley rat at 1 mg/kg,iv and measured after 72 hrs by LC/MS/MS analysis; format: ADME, organism-based; conditions: in vivo
[14] = Volume of distribution at steady state in Sprague-Dawley rat at 1 mg/kg,iv and measured after 72 hrs by LC/MS/MS analysis; format: ADME, organism-based; conditions: in vivo, read-out: Vdss
[15] = Cmax in Sprague-Dawley rat at 3 mg/kg,po and measured after 72 hrs by LC/MS/MS analysis; format: ADME, organism-based; design: time 72 hrs, dose 3 mg/kg, route po; conditions: in vivo
[16] = AUC (0 to infinity) in Sprague-Dawley rat at 0.5 mg/kg,iv and measured after 72 hrs by LC/MS/MS analysis; format: ADME, organism-based; design: time 72 hrs, dose 0.5 mg/kg, route iv; conditions: in vivo
[17] = biological target: T1, Nuclear receptor subfamily 1 group I member 2 (Homo sapiens, UniProt O75469); test: Activation of human PXR expressed in human DPX2 co-expressing luciferase reporter gene incubated for 24 hrs by luciferase assay; format: cell-based
T1 sequence (O75469 whole entry): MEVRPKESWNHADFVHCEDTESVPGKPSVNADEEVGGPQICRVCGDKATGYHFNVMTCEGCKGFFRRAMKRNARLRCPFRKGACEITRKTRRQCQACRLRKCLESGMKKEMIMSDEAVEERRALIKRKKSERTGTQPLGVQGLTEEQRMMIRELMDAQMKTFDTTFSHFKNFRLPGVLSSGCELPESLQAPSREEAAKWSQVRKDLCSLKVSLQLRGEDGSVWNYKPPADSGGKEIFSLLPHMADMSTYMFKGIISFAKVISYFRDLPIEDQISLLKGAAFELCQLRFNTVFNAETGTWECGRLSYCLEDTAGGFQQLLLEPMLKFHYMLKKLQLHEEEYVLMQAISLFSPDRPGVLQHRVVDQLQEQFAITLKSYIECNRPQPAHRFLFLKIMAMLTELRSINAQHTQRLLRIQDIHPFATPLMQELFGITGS

[18] = Volume of distribution at steady state in Sprague-Dawley rat at 0.5 mg/kg,iv and measured after 72 hrs by LC/MS/MS analysis; format: ADME, organism-based; conditions: in vivo, read-out: Vdss
[19] = Half life in Sprague-Dawley rat at 0.5 mg/kg,iv and measured after 72 hrs by LC/MS/MS analysis; format: ADME, organism-based; conditions: in vivo
[20] = Microsomal stability in rat liver microsomes assessed as parent compound remaining at 1 uM and measured after 30 mins in presence of NADPH by LC/MS/MS analysis; format: ADME, Microsome; conditions: 0.5 h
PXR [21] = biological target: T2, PXR (Homo sapiens, UniProt O75469); test: Activation of human PXR expressed in human DPX2 co-expressing luciferase reporter gene assessed as maximum efficacy incubated for 24 hrs by luciferase assay relative to control; format: cell-based; conditions: DPX2 cells expressing human PXR and luciferase reporter gene
T2 sequence (O75469 whole entry): T1 sequence (O75469 whole entry)

[22] = Cmax in Sprague-Dawley rat at 1.5 mg/kg,po and measured after 72 hrs by LC/MS/MS analysis; format: ADME, organism-based; design: dose 1.5 mg/kg, time 72 hrs, route po; conditions: in vivo
Cytochrome P450 2D6 = Cytochrome P450 2D6 (Homo sapiens, UniProt P10635); test: Inhibition of CYP2D6 in human liver microsomes incubated for 10 mins in presence of NADPH by LC/MS/MS analysis; format: ADME, Microsome
Chain of Cytochrome P450 2D6 (P10635 whole entry): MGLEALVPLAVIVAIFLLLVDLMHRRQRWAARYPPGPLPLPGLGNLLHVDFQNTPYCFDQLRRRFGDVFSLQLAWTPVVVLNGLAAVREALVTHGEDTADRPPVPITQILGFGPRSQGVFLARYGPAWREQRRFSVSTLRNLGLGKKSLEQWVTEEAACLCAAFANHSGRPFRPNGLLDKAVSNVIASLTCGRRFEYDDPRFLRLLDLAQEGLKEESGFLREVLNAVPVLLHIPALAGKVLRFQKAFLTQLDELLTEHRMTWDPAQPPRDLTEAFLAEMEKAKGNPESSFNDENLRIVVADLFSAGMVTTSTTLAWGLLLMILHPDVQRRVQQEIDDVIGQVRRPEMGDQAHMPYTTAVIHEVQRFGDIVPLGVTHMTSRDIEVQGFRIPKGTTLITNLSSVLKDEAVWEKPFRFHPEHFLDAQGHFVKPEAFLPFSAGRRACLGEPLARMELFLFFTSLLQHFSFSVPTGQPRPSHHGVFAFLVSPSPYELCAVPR

[23] = Half life in Sprague-Dawley rat at 1.5 mg/kg,po and measured after 72 hrs by LC/MS/MS analysis; format: ADME, organism-based; conditions: in vivo
[24] = Unbound AUC (0 to infinity) in Sprague-Dawley rat at 1.5 mg/kg,po and measured after 72 hrs by LC/MS/MS analysis; format: ADME, organism-based; conditions: in vivo
[25] = AUC (0 to infinity) in Sprague-Dawley rat at 1.5 mg/kg,po and measured after 72 hrs by LC/MS/MS analysis; format: ADME, organism-based; design: dose 1.5 mg/kg, time 72 hrs, route po; conditions: in vivo
PXR [26] = biological target: T2, PXR; test: Activation of human PXR expressed in human DPX2 co-expressing luciferase reporter gene assessed as fold increase incubated for 24 hrs by luciferase assay relative to control; format: cell-based; conditions: DPX2 cells expressing human PXR and luciferase reporter gene, read-out: FC
[27] = Protein binding in human plasma at 1 uM incubated for 6 hrs by LC-MS/MS based rapid equilibrium dialysis method; format: ADME, cell-free; conditions: read-out: PPB
[28] = Unbound AUC (0 to infinity) in Sprague-Dawley rat at 0.5 mg/kg,iv and measured after 72 hrs by LC/MS/MS analysis; format: ADME, organism-based; conditions: in vivo
[29] = Oral bioavailability in Sprague-Dawley rat at 1.5 mg/kg and measured after 72 hrs by LC/MS/MS analysis; format: ADME, organism-based; conditions: in vivo
Cytochrome P450 3A4 = Cytochrome P450 3A4 (Homo sapiens, UniProt P08684); test: Inhibition of CYP3A4 in human liver microsomes incubated for 10 mins in presence of NADPH by LC/MS/MS analysis; format: ADME, Microsome
Chain of Cytochrome P450 3A4 (P08684 whole entry): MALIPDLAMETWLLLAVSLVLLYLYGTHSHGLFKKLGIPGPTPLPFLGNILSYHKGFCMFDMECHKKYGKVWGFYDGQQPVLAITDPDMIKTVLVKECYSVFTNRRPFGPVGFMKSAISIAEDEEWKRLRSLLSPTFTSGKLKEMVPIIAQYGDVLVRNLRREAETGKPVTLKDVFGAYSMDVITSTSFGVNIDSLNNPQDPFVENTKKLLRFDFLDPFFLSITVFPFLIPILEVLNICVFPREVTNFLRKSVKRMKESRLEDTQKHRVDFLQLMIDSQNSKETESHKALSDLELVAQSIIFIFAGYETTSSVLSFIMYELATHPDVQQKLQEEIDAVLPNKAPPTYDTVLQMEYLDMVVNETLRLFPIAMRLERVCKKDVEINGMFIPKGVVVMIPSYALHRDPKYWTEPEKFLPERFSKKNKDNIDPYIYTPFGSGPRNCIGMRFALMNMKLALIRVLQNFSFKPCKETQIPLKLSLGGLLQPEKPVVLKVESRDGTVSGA

Cytochrome P450 2C9 = Cytochrome P450 2C9 (Homo sapiens, UniProt P11712); test: Inhibition of CYP2C9 in human liver microsomes incubated for 10 mins in presence of NADPH by LC/MS/MS analysis; format: ADME, Microsome
Chain of Cytochrome P450 2C9 (P11712 whole entry): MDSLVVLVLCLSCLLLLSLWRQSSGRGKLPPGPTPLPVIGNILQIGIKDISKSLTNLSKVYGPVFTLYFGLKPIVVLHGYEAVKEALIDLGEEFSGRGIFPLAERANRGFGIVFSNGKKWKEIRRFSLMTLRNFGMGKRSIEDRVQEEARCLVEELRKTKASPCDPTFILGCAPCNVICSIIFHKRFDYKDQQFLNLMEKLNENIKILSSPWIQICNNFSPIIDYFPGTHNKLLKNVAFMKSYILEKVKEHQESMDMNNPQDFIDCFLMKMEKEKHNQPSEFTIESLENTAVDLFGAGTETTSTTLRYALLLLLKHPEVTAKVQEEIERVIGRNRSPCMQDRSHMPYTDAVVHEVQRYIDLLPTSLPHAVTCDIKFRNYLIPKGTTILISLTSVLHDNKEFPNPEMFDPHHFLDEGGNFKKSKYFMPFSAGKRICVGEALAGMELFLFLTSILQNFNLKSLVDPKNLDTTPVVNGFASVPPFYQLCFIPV

[30] = Unbound clearance in Sprague-Dawley rat at 0.5 mg/kg,iv and measured after 72 hrs by LC/MS/MS analysis; format: ADME, organism-based; conditions: in vivo
[31] = Microsomal stability in human liver microsomes assessed as parent compound remaining at 1 uM and measured after 30 mins in presence of NADPH by LC/MS/MS analysis; format: ADME, Microsome; conditions: 0.5 h

Row | SMILES | fAUC [1] | fAUC [2] | half-life [4] | bioavailability [5] | IC50 (Hepatitis C virus [6]) | IC90 (Hepatitis C virus [6]) | AUC(0-inf) [7] | CC50 [9] | IC50 (Hepatitis C virus [11]) | fraction unbound at 6 h, 1 µM [12] | CL free [13] | Vd [14] | Cmax [15] | EC50 [17] | Emax at 24 h (PXR [21]) | also measured
1 | CN1CC[C@H](N(c2cc(C#CC(C)(C)C)sc2C(=O)O)C(=O)[C@H]2CC[C@H](C)CC2)C1=O | 4.35 ng·h/mL | 3.34 ng·h/mL | 3.07 h | 26% | 4 nM | 13 nM | 176 ng·h/mL | > 20000 nM | 40 nM | 0.019 | 3880 mL/min/kg | 6.04 L/kg | 119 ng/mL | – | – | clearance [3]: 73.7 mL/min/kg; AUC(0-inf) [8]: 229 ng·h/mL; half-life [10]: 4.66 h
2 | CN1CCC[C@H](N(c2cc(C#CC(C)(C)C)sc2C(=O)O)C(=O)[C@H]2CC[C@H](C)CC2)C1=O | – | – | – | – | 3 nM | 8 nM | – | > 20000 nM | 24 nM | 0.011 | – | – | – | 17300 nM | 63% | AUC [16]: 8770 ng·h/mL; Vd [18]: 1.17 L/kg; half-life [19]: 6.68 h; Stability [20]: Stable; Cmax [22]: 751 ng/mL; IC50 (Cytochrome P450 2D6): > 30000 nM; half-life [23]: 4.8 h; fAUC [24]: 70.3 ng·h/mL; AUC(0-inf) [25]: 6390 ng·h/mL; fold induction at 24 h (PXR [26]): 15.1; fraction unbound at 6 h, 1 µM [27]: 0.01; fAUC [28]: 96.5 ng·h/mL; bioavailability [29]: 24%; IC50 (Cytochrome P450 3A4): > 30000 nM; IC50 (Cytochrome P450 2C9): > 30000 nM; CL free [30]: 755 mL/min/kg; Stability [31]: Stable
3 | CC(C)(C)C#Cc1cc(N(CC(=O)N2CCOCC2)C(=O)[C@H]2CC[C@H](C)CC2)c(C(=O)O)s1 | – | – | – | – | 23 nM | 100 nM | – | > 20000 nM | 340 nM | – | – | – | – | – | – | –
4 | CC(C)(C)C#Cc1cc(N(C(=O)[C@H]2CC[C@H](C)CC2)[C@H]2CC[C@H](O)CC2)c(C(=O)O)s1 [LOMIBUVIR] | – | – | – | – | 25 nM | 97 nM | – | > 20000 nM | 203 nM | – | – | – | – | – | – | –
5 | C[C@H](C(=O)N(C)C)N(c1cc(C#CC(C)(C)C)sc1C(=O)O)C(=O)[C@H]1CC[C@H](C)CC1 | – | – | – | – | 110 nM | 610 nM | – | > 20000 nM | 1320 nM | – | – | – | – | – | – | –
6 | CN1CC[C@@H](N(c2cc(C#CC(C)(C)C)sc2C(=O)O)C(=O)[C@H]2CC[C@H](C)CC2)C1=O | 3.48 ng·h/mL | 6.64 ng·h/mL | 2.73 h | 64% | 16 nM | 96 nM | 3320 ng·h/mL | > 20000 nM | 140 nM | 0.002 | 11300 mL/min/kg | 1.93 L/kg | 1310 ng/mL | – | – | AUC ([8]; 72 h): 1740 ng·h/mL
7 | CN1CCC[C@@H](N(c2cc(C#CC(C)(C)C)sc2C(=O)O)C(=O)[C@H]2CC[C@H](C)CC2)C1=O | – | – | – | – | 10 nM | 44 nM | – | > 20000 nM | 105 nM | 0.0004 | – | – | – | 20400 nM | 28% | AUC [16]: 25400 ng·h/mL; Vd [18]: 0.221 L/kg; half-life [19]: 5.57 h; Cmax [22]: 2540 ng/mL; half-life [23]: 6.13 h; fAUC [24]: 9.76 ng·h/mL; AUC(0-inf) [25]: 24400 ng·h/mL; fold induction at 24 h (PXR [26]): 7.3; fAUC [28]: 10.2 ng·h/mL; bioavailability [29]: 32%; CL free [30]: 2980 mL/min/kg
8 | C[C@@H](C(=O)N(C)C)N(c1cc(C#CC(C)(C)C)sc1C(=O)O)C(=O)[C@H]1CC[C@H](C)CC1 | – | – | – | – | 5 nM | 24 nM | – | > 20000 nM | 49 nM | – | – | – | – | – | – | –
9 | CN1CCCC[C@@H](N(c2cc(C#CC(C)(C)C)sc2C(=O)O)C(=O)[C@H]2CC[C@H](C)CC2)C1=O | 2.26 ng·h/mL | 7.06 ng·h/mL | 2.79 h | 122% | 29 nM | 63 nM | 3530 ng·h/mL | > 20000 nM | 156 nM | 0.002 | 7950 mL/min/kg | 1.05 L/kg | 589 ng/mL | > 30000 nM | 16% | clearance [3]: 15.9 mL/min/kg; AUC(0-inf) [8]: 1130 ng·h/mL; half-life [10]: 4.31 h
